According to patent US7138361B2, “Herbicidal heterocycles” (E. I. du Pont de Nemours and Company, priority 2000, dated 2006):

Key:
Format in all cases: in vivo
Nightshade [1] = assay: Test C preemergence
Sunflower = assay: Test C preemergence; settings: Rate 125 g/ha; scale 0 to 100, 0 no effect, 100 complete control
[2] = tested on: Surinam grass (Brachiaria decumbens); assay: Test C preemergence
In short: (§1)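 Pre- and postemergence treatments used a non-phytotoxic solvent/surfactant formulation; post-treated plants measured 2 to 18 cm. Greenhouse hold 12–14 d; % control estimated visually relative to controls.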

[3] = tested on: bermudagrass (Cynodon dactylon); assay: Test C preemergence
In short: as §1

[4] = tested on: cocklebur (Xanthium strumarium); assay: Test C preemergence
In short: as §1

[5] = tested on: common ragweed (Ambrosia elatior); assay: Test C preemergence; settings: preemergence
In short: as §1

corn (Zea mays) = assay: Test C preemergence
In short: as §1

[6] = tested on: crabgrass (Digitaria sanguinalis); assay: Test C preemergence
In short: as §1

[7] = tested on: giant foxtail (Setaria faberii); assay: Test C preemergence
In short: as §1

[8] = tested on: goosegrass (Eleusine indica); assay: Test C preemergence
In short: as §1

[9] = tested on: johnsongrass (Sorghum halepense); assay: Test C preemergence
In short: as §1

kochia (Kochia scoparia) = assay: Test C preemergence
In short: as §1

[10] = tested on: lambsquarters (Chenopodium album); assay: Test C preemergence
In short: as §1

[11] = tested on: morningglory (Ipomoea hederacea); assay: Test C preemergence
In short: as §1

[12] = tested on: pigweed (Amaranthus retroflexus); assay: Test C preemergence
In short: as §1

soybean (Glycine max) = assay: Test C preemergence
In short: as §1

[13] = tested on: velvetleaf (Abutilon theophrasti); assay: Test C preemergence
In short: as §1

[14] = tested on: woolly cupgrass (Eriochloa villosa); assay: Test C preemergence
In short: as §1

[15] = tested on: yellow nutsedge (Cyperus esculentus); assay: Test C preemergence
In short: as §1

[16] = tested on: duck salad (Heteranthera limosa); assay: Test C flooded paddy test; settings: for Plant response rating, Ducksalad: scale 0 to 100 (0 no effect, 100 complete control)
In short: (§2)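 Response on a 0-to-100 scale (no effect to complete control) was assessed by eye versus controls. Plants had reached 2 leaves when treated in flooded paddy conditions. The assessment took place after 12–14 days of greenhouse growth.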

rice (Oryza saliva) = assay: Test C flooded paddy test; settings: for Plant response rating, Rice: scale 0 to 100 (0 no effect, 100 complete control)
In short: as §2

[17] = tested on: smallflower flatsedge (Cyperus difformis); assay: Test C flooded paddy test; settings: for Plant response rating, Flatsedge: scale 0 to 100 (0 no effect, 100 complete control)
In short: as §2

Nightshade [18] = assay: Test C preemergence; settings: Rate 500 g/ha, visual evaluation after 12 to 14 days
[19] = Rate 125 g/ha, scale 0 to 100, 0 no effect, 100 complete control
[20] = Rate 250 g/ha, scale 0 to 100, 0 no effect, 100 complete control
[21] = preemergence, Rate 62 g/ha, scale 0 to 100
[22] = preemergence, Rate 500 g/ha, visual evaluation after 12 to 14 days
[23] = preemergence, Rate 250 g/ha, scale 0 to 100, 0 no effect, 100 complete control
[24] = Flooded Paddy, Rate 500 g/ha, scale 0 to 100, 0 no effect, 100 complete control
[25] = flooded paddy test, Rate 125 g/ha
[26] = flooded paddy test, Rate 250 g/ha
[27] = flooded paddy test, Rate 62 g/ha, visually evaluated after 12 to 14 days, 0 = no effect, 100 = complete control

COc1cc(N2CCC(n3ccc(C(C)C)n3)C2=O)ccc1Br (centres unmarked) [Compound 140]
Plant response rating, Nightshade (Nightshade [1]; Rate 62 g/ha, scale 0 to 100): 100 | Plant response rating, Nightshade (Nightshade [1]; [19]): 100 | Plant response rating, Nightshade (Nightshade [1]; [20]): 100 | Plant response rating, Sunflower (Sunflower): 50 | Plant response rating, Surinam grass [2, 19]: 0 | Plant response rating, Surinam grass [2, 21]: 0 | Plant response rating (0 to 100), Surinam grass [2, 22]: 100 | Plant response rating, Surinam grass [2, 23]: 90 | Plant response rating, Bermudagrass [3, 19]: 100 | Plant response rating, Bermudagrass [3, 21]: 100 | Plant response rating (0 to 100 where 0 is no effect and 100 is complete control), Bermudagrass [3, 22]: 100 | Plant response rating, Bermudagrass [3, 23]: 100 | Plant response rating, Cocklebur [4, 19]: 30 | Plant response rating, Cocklebur [4, 21]: 30 | Plant response rating, Cocklebur [4, 23]: 90 | Plant response rating, Ragweed, Common ([5]; Rate 62 g/ha, scale 0 to 100): 100 | Plant response rating (0 to 100), Ragweed, Common ([5]; Rate 500 g/ha, visual evaluation after 12 to 14 days): 100 | Plant response rating, Ragweed, Common [5, 20]: 100 | Plant response rating, Corn (corn (Zea mays); [19]): 20 | Plant response rating, Corn (corn (Zea mays); [21]): 20 | Plant response rating (0 to 100), Corn (corn (Zea mays); [22]): 30 | Plant response rating, Corn (corn (Zea mays); [23]): 30 | Plant response rating, Crabgrass [6, 19]: 100 | Plant response rating, Crabgrass [6, 21]: 100 | Plant response rating (0 to 100), Crabgrass [6, 22]: 100 | Plant response rating, Crabgrass [6, 23]: 100 | Plant response rating, Foxtail, Giant [7, 19]: 100 | Plant response rating, Foxtail, Giant [7, 21]: 100 | Plant response rating (0 to 100), Foxtail, Giant [7, 22]: 100 | Plant response rating, Foxtail, Giant [7, 23]: 100 | Plant response rating, Goosegrass [8, 19]: 100 | Plant response rating, Goosegrass [8, 21]: 100 | Plant response rating (0 to 100), Goosegrass [8, 22]: 100 | Plant response rating, Goosegrass [8, 23]: 100 | Plant response rating, Johnsongrass [9, 19]: 20 | Plant response rating, Johnsongrass [9, 21]: 0 | Plant response rating (0 to 100), Johnsongrass [9, 22]: 100 | Plant response rating, Johnsongrass [9, 23]: 100 | Plant response rating, Kochia (kochia (Kochia scoparia); [19]): 100 | Plant response rating, Kochia (kochia (Kochia scoparia); [21]): 100 | Plant response rating (0 to 100), Kochia (kochia (Kochia scoparia); [22]): 100 | Plant response rating, Kochia (kochia (Kochia scoparia); [23]): 100 | Plant response rating, Lambsquarters [10, 19]: 100 | Plant response rating, Lambsquarters [10, 21]: 100 | Plant response rating (0 to 100), Lambsquarters [10, 22]: 100 | Plant response rating, Lambsquarters [10, 23]: 100 | Plant response rating, Morningglory [11, 19]: 90 | Plant response rating, Morningglory [11, 21]: 70 | Plant response rating (0 to 100), Morningglory [11, 22]: 100 | Plant response rating, Morningglory [11, 23]: 100 | Plant response rating, Pigweed [12, 19]: 100 | Plant response rating, Pigweed [12, 21]: 100 | Plant response rating (0 to 100), Pigweed [12, 22]: 100 | Plant response rating, Pigweed [12, 23]: 100 | Plant response rating, Soybean (soybean (Glycine max); [19]): 80 | Plant response rating, Soybean (soybean (Glycine max); [21]): 50 | Plant response rating (0 to 100), Soybean (soybean (Glycine max); [22]): 100 | Plant response rating, Soybean (soybean (Glycine max); [23]): 100 | Plant response rating, Velvetleaf [13, 19]: 70 | Plant response rating, Velvetleaf [13, 21]: 60 | Plant response rating (0 to 100), Velvetleaf [13, 22]: 90 | Plant response rating, Velvetleaf [13, 23]: 90 | Plant response rating, Cupgrass, Woolly [14, 19]: 100 | Plant response rating, Cupgrass, Woolly [14, 21]: 100 | Plant response rating (0 to 100), Cupgrass, Woolly [14, 22]: 100 | Plant response rating, Cupgrass, Woolly [14, 23]: 100 | Plant response rating, Nutsedge [15, 19]: 40 | Plant response rating, Nutsedge [15, 21]: 20 | Plant response rating (0 to 100), Nutsedge [15, 22]: 70 | Plant response rating, Nutsedge [15, 23]: 60 | Ducksalad plant response rating [16, 24]: 95 | Plant response rating, Ducksalad [16, 25]: 75 | Plant response rating, Ducksalad [16, 26]: 95 | Plant response rating (scale 0 to 100), Ducksalad [16, 27]: 20 | Rice plant response rating (rice (Oryza saliva); [24]): 50 | Plant response rating, Rice (rice (Oryza saliva); [25]): 30 | Plant response rating, Rice (rice (Oryza saliva); [26]): 35 | Plant response rating (scale 0 to 100), Rice (rice (Oryza saliva); [27]): 0 | Flatsedge plant response rating [17, 24]: 95 | Plant response rating, Flatsedge [17, 25]: 90 | Plant response rating, Flatsedge [17, 26]: 95 | Plant response rating (scale 0 to 100), Flatsedge [17, 27]: 90 | Plant response rating (0 to 100), Nightshade (Nightshade [18]): 100
